Here are results for three molecules from ChEMBL document CHEMBL5131445, “Optimization of a novel piperazinone series as potent selective peripheral covalent BTK inhibitors” (Bioorg Med Chem Lett, 2022).

Data set [1] has as its target Receptor tyrosine-protein kinase erbB-4 (Homo sapiens, UniProt Q15303). Nature of the data set: Binding affinity to ERBB4 (unknown origin) assessed as dissociation constant by KINOMEscan analysis.
The target in data set [2] is T1, Tyrosine-protein kinase JAK3 (Homo sapiens, UniProt P52333).
T1 sequence (P52333 whole entry): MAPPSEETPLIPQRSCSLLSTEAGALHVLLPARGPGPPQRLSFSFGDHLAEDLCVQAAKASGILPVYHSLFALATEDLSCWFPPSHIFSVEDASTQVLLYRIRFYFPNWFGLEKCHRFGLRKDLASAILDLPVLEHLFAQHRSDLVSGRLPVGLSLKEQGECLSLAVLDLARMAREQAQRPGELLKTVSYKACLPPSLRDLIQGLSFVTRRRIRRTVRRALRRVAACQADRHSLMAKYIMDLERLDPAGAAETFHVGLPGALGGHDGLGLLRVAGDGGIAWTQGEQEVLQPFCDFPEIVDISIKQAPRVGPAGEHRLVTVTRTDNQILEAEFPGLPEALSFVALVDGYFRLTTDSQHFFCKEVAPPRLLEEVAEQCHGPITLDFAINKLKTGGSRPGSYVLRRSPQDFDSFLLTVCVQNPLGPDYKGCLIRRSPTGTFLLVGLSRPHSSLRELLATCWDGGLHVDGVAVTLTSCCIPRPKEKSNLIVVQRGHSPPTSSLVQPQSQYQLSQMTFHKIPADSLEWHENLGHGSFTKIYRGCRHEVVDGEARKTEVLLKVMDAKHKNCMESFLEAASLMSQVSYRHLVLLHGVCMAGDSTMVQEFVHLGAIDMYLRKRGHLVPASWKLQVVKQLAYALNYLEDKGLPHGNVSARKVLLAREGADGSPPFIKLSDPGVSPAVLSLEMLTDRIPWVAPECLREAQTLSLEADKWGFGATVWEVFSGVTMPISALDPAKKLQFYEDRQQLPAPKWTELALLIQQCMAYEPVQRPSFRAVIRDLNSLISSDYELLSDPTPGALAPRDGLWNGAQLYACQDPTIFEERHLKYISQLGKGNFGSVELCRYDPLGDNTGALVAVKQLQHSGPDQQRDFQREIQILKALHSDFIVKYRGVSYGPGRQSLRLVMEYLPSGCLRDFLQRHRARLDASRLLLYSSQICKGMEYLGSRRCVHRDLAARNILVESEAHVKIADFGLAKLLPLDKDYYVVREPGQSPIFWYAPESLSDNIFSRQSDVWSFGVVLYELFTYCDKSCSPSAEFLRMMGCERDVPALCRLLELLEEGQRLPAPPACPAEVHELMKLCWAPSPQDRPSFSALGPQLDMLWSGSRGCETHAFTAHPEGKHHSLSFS
Nature of the data set: Binding affinity to JAK3 (unknown origin) assessed as dissociation constant by KINOMEscan analysis.

Data set [3] addresses Tyrosine-protein kinase Blk (Homo sapiens, UniProt P51451). Nature of the data set: Binding affinity to BLK (unknown origin) assessed as dissociation constant by KINOMEscan analysis.
Data set [4] deals with T2, Tyrosine-protein kinase TXK (Homo sapiens, UniProt P42681).
T2 sequence (P42681 whole entry): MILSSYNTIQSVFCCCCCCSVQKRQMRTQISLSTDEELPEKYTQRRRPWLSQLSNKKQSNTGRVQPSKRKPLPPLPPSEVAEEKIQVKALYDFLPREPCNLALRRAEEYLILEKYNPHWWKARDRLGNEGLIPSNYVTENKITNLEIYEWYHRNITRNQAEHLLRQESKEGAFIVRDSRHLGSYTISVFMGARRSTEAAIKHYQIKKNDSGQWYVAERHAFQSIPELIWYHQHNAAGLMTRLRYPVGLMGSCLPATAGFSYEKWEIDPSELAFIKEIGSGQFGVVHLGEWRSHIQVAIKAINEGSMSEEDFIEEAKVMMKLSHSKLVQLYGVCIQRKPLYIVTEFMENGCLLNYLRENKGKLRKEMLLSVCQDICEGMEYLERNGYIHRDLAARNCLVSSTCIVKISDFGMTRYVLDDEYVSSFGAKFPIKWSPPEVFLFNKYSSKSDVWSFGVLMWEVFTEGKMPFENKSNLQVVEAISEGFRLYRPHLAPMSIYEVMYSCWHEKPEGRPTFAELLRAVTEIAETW
As to the kind of experiment: Binding affinity to TXK (unknown origin) assessed as dissociation constant by KINOMEscan analysis.

In data set [5] the target is Epidermal growth factor receptor (Homo sapiens, UniProt P00533). Nature of the data set: Binding affinity to EGFR (unknown origin) assessed as dissociation constant by KINOMEscan analysis.
The target in data set [6] is Receptor tyrosine-protein kinase erbB-2 (Homo sapiens, UniProt P04626). As to the kind of experiment: Binding affinity to ERBB2 (unknown origin) assessed as dissociation constant by KINOMEscan analysis.
The target in data set [7] is T3, Tyrosine-protein kinase Tec (Homo sapiens, UniProt P42680).
T3 sequence (P42680 whole entry): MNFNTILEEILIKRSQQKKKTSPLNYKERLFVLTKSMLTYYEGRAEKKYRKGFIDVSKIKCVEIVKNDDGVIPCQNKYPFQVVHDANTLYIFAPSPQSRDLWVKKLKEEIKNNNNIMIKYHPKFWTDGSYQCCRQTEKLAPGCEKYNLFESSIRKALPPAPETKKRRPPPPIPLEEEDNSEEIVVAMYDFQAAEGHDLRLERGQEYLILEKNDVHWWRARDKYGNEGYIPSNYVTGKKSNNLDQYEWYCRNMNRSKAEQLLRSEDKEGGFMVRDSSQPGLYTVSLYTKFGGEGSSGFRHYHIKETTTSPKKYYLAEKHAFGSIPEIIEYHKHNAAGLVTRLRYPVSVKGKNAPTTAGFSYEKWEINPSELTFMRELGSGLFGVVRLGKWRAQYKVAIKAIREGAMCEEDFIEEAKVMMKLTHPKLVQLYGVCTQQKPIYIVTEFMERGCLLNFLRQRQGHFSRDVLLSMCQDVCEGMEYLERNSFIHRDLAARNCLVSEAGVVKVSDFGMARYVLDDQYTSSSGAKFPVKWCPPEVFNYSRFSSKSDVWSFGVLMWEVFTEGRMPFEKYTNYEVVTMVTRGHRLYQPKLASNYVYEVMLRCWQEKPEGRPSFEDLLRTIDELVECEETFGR
As to the kind of experiment: Binding affinity to TEC (unknown origin) assessed as dissociation constant by KINOMEscan analysis.

For data set [8], the target named is T4, Tyrosine-protein kinase ITK/TSK (Homo sapiens, UniProt Q08881).
T4 sequence (Q08881 whole entry): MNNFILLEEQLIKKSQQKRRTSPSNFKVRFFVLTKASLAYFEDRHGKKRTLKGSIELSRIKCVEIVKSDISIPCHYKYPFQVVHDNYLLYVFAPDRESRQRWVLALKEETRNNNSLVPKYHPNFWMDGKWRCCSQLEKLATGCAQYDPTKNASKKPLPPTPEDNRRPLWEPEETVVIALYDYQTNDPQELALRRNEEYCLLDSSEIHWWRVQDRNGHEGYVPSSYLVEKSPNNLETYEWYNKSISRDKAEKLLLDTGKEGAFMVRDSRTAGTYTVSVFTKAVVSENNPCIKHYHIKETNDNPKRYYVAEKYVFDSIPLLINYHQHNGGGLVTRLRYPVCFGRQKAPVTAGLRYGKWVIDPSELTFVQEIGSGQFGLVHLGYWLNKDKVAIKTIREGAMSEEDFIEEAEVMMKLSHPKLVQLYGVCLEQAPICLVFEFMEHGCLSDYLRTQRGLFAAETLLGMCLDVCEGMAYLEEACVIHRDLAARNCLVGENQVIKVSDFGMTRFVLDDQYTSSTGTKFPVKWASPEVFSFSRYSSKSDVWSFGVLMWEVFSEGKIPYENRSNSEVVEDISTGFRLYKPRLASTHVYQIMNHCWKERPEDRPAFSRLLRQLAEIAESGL
As to the kind of experiment: Binding affinity to ITK (unknown origin) assessed as dissociation constant by KINOMEscan analysis.

Data set [9] can be described thus: Inhibition of CD69 expression on CD19 positive B cells in anti-IgD stimulated human whole blood. In kind it is functional, tissue-based. The settings on record: CD19 positive B cell.
A short description of data set [10]: Metabolic stability in human liver microsomes assessed as intrinsic clearance. In kind it is ADME, Microsome. Conditions: read-out: CLH.
A short description of data set [11]: Metabolic stability in rat liver microsomes assessed as intrinsic clearance. In kind it is ADME, Microsome. The settings on record: read-out: CLH.
Data set [12] is described as follows: Clearance in iv dosed Sprague-Dawley rat. Format: ADME, organism-based. The settings on record: in vivo.
Data set [13] in a line: Plasma protein binding in rat assessed as unbound fraction by rapid equilibrium dialysis method. Format: ADME, cell-free.
In data set [14] the target is Tyrosine-protein kinase BTK (Homo sapiens, UniProt Q06187). As to the kind of experiment: Inhibition of BTK (unknown origin).
A short description of data set [15]: Plasma protein binding in human assessed as unbound fraction by rapid equilibrium dialysis method. In kind it is ADME, cell-free.

Tyrosine-protein kinase Blk, sequence (P51451 whole entry): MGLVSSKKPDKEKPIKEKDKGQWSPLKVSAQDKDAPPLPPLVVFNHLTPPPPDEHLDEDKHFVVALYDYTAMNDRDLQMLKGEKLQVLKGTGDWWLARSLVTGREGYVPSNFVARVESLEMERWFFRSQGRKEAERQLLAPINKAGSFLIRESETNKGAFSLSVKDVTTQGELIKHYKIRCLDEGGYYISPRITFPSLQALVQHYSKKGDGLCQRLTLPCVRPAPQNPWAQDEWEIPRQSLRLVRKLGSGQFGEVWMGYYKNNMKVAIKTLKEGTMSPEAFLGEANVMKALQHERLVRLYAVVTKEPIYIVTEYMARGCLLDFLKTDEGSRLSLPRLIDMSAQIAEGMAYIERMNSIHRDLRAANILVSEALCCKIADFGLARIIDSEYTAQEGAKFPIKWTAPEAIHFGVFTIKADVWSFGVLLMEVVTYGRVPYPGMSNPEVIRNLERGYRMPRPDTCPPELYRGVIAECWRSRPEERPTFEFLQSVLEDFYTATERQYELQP
Epidermal growth factor receptor, sequence (P00533 whole entry): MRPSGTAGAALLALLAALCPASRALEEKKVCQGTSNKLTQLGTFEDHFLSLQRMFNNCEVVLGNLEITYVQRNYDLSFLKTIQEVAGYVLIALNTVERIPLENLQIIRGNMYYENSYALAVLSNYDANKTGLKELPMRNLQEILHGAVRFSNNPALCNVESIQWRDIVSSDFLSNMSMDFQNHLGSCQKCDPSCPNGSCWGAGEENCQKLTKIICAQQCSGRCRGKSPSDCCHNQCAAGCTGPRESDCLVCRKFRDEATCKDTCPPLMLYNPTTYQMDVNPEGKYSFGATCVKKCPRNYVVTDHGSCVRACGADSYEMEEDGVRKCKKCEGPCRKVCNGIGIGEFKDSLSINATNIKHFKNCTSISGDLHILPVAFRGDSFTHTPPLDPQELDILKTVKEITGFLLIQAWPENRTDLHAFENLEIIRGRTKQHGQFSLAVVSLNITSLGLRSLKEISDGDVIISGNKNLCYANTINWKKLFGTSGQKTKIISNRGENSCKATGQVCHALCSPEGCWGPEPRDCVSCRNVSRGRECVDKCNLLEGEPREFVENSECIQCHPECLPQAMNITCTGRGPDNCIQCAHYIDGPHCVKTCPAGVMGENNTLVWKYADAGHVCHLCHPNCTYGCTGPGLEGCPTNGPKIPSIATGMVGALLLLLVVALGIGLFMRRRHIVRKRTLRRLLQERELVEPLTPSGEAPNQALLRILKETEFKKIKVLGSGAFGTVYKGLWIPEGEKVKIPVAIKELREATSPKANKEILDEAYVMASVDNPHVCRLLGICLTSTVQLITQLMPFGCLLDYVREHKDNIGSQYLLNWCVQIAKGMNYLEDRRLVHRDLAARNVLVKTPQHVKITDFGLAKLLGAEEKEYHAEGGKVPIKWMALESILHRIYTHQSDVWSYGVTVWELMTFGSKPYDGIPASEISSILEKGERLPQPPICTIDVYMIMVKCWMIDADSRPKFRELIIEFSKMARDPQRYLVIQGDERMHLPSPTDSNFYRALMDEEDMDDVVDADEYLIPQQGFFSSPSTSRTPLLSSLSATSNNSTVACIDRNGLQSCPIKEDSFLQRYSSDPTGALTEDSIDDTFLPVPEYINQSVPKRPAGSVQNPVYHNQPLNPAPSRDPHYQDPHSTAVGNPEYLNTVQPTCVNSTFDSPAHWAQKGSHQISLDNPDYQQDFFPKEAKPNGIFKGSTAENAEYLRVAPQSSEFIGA
Receptor tyrosine-protein kinase erbB-2, sequence (P04626 whole entry): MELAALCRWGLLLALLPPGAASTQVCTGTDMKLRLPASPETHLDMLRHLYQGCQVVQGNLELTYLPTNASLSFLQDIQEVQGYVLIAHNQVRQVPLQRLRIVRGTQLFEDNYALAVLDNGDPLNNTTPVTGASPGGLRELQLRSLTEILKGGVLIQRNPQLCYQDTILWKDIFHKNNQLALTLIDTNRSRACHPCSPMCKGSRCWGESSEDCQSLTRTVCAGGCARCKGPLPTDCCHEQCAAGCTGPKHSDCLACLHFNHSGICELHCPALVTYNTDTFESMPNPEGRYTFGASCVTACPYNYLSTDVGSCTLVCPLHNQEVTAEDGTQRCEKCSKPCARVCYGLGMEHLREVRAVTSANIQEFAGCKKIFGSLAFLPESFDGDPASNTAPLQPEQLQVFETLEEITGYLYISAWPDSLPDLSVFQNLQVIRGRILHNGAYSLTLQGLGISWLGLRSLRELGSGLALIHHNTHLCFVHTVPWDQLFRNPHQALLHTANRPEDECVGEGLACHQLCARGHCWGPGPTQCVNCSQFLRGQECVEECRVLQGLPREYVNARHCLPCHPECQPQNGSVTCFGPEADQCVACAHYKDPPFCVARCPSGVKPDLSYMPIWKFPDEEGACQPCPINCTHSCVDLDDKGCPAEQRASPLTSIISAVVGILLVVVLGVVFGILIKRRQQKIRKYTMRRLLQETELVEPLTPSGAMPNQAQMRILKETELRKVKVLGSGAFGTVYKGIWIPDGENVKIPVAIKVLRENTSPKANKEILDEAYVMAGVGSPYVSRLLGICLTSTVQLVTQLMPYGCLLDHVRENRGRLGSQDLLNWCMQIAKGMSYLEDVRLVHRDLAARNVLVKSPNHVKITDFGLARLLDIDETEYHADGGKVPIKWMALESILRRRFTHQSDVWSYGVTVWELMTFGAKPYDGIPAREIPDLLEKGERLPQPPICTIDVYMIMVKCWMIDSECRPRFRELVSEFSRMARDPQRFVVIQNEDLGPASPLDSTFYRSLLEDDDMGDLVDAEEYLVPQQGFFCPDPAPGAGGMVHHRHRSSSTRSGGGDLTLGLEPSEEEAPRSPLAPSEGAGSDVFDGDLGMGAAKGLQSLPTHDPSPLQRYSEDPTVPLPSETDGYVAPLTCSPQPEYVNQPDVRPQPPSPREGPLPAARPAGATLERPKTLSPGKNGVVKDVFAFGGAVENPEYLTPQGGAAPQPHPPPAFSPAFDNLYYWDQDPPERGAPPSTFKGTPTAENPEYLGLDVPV
Tyrosine-protein kinase BTK, sequence (Q06187 whole entry): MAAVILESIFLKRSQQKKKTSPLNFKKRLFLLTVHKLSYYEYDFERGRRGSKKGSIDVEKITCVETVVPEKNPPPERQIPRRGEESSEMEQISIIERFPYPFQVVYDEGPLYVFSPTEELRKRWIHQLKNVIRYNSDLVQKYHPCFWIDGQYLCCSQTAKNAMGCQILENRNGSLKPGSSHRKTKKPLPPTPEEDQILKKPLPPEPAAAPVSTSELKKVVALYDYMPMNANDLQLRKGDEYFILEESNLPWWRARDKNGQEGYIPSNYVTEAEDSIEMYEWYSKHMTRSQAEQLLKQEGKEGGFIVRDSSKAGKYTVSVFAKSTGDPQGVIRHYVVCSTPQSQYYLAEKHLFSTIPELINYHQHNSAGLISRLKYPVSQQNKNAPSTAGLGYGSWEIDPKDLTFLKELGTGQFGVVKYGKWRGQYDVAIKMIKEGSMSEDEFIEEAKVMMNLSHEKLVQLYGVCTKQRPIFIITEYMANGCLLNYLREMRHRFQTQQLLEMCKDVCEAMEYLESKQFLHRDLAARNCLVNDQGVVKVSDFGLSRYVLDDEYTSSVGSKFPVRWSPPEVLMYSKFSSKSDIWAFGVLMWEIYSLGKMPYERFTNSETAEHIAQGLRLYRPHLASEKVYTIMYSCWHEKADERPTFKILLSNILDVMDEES
Receptor tyrosine-protein kinase erbB-4, sequence (Q15303 whole entry): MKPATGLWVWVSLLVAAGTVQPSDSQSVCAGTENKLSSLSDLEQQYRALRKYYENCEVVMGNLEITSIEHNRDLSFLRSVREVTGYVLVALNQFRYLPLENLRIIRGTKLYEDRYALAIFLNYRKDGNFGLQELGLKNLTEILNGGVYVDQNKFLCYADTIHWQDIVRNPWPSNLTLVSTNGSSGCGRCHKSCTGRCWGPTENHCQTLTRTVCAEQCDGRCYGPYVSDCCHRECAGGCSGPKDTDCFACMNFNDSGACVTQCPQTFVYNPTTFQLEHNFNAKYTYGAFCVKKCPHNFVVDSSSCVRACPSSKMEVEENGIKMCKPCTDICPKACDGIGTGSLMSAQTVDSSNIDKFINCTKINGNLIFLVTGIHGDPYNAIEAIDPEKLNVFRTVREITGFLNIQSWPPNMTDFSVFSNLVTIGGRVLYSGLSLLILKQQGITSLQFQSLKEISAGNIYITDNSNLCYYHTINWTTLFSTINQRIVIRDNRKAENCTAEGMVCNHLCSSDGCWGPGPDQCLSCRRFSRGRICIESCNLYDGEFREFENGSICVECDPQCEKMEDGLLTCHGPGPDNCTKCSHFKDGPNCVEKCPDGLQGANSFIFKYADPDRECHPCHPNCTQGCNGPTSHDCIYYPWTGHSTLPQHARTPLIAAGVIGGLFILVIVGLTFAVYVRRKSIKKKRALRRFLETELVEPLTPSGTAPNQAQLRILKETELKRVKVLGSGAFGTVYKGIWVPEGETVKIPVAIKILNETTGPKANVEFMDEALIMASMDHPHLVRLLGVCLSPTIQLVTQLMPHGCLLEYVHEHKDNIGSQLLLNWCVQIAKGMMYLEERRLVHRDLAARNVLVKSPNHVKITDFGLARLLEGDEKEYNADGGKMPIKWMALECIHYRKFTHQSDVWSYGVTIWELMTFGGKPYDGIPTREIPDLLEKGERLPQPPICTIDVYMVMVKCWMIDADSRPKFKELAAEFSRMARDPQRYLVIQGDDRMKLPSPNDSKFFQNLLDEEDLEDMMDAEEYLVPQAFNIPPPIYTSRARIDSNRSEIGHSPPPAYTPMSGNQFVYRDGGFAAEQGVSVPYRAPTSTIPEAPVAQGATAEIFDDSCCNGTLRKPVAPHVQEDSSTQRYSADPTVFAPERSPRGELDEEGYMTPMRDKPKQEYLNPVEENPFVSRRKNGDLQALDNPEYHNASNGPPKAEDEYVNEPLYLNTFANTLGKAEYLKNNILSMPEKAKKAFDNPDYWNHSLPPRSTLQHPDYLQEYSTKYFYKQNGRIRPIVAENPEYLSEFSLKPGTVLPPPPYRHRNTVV

For the molecule `C[C@@H]1CN(C2COC2)CCN1c1ccc(Nc2cc(-c3ccnc(N4CCn5c(cc6c5CC(C)(C)C6)C4=O)c3CO)cn(C)c2=O)nc1`, the Kd in data set [1] was 30 µM; in [2], 23 µM; in data set [3], 4.1 µM; in data set [4], 2 µM; in data set [5], 30 µM; in [6], 30 µM. The Kd in [7] worked out at 0.21 µM; in [8], 0.19 µM.

Molecule `C=CC(=O)N(C)CCOc1c(N)ncnc1-c1cc(F)cc(NC(=O)c2ccc(C3CC3)cc2F)c1C` [REMIBRUTINIB] displayed a half-inhibitory concentration (IC50) in data set [9] of 0.036 µM. For the same molecule, the figures for the Kd in data set [3] and in [4] were 30 µM and 17 µM, respectively. The values for the CLint scaled in data set [10] and in data set [11] were 80 mL/min/kg and 97 mL/min/kg, respectively. In addition, the clearance in [12] is 214 mL/min/kg.

Consider `C=CC(=O)N(C)CCOc1cncnc1-c1ccc(CN2CCN(CC(C)C)CC2=O)c(C)c1`, for which the IC50 in data set [9] amounted to 0.13 µM; in [14] it was 0.00083 µM. Further, the figures for the fraction unbound in data set [13] and in [15] were 0.07 and 0.24, respectively. Also, the figures for the CLint scaled in data set [10] and in [11] were 444 mL/min/kg and 2000 mL/min/kg, respectively.
